Reference: ChEMBL document CHEMBL1201862, “PubChem BioAssay data set” (2004)
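Cultured in 96-well plates, cells were exposed to test compound for 48 hours across five concentrations. At the GI50, growth is halved.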 Activity calls are given as the source filed them. Rule as the data show it: active = GI50 up to about 1.1 µM and inactive = higher.

How the values were obtained:
Assay in all cases: NCI-60 cell line screen, 48 h
ACHN = system: ACHN
NCI-H226 = system: NCI-H226
786-0 = system: 786-0
SR = system: SR
U-251 = system: U-251
MOLT-4 = system: MOLT-4
UACC-62 = system: UACC-62
UO-31 = system: UO-31
PC-3 = system: PC-3
T47D = system: T47D
Hs-578T = system: Hs-578T
OVCAR-4 = system: OVCAR-4
UACC-257 = system: UACC-257
BT-549 = system: BT-549
MDA-MB-231 = system: MDA-MB-231
Malme-3M = system: Malme-3M
A549 = system: A549
OVCAR-3 = system: OVCAR-3
HL-60 = system: HL-60
COLO 205 = system: COLO 205

Measured: GI50

NCCSCc1ccccc1Cl
inactive: ACHN > 100 µM | NCI-H226 > 100 µM | 786-0 42.7 µM | SR 18.6 µM | U-251 31.6 µM | MOLT-4 31 µM | UACC-62 53.6 µM | UO-31 > 100 µM | PC-3 30.3 µM | T47D 42.4 µM | Hs-578T 73.5 µM | OVCAR-4 64.9 µM | UACC-257 23.3 µM | BT-549 69.7 µM | MDA-MB-231 45.6 µM | Malme-3M 65.8 µM | A549 > 100 µM | OVCAR-3 28.9 µM

c1ccc2nc3c(nc2c1)sc1nc2ccccc2n13
inactive: ACHN 92 µM | NCI-H226 > 100 µM | 786-0 46.1 µM | HL-60 > 100 µM | SR > 100 µM | U-251 > 100 µM | MOLT-4 > 100 µM | UACC-62 > 100 µM | UO-31 > 100 µM | PC-3 > 100 µM | COLO 205 > 100 µM | T47D 8 µM | Hs-578T > 100 µM | UACC-257 > 100 µM | BT-549 > 100 µM | MDA-MB-231 > 100 µM | Malme-3M > 100 µM | A549 > 100 µM | OVCAR-3 > 100 µM

O=C1C(c2c(O)[nH]c3ccc([N+](=O)[O-])cc23)=Nc2ccccc21
inactive: ACHN 40.5 µM | NCI-H226 > 100 µM | 786-0 59.8 µM | SR 30.3 µM | U-251 21.2 µM | MOLT-4 65.9 µM | UACC-62 > 100 µM | UO-31 > 100 µM | PC-3 83.6 µM | COLO 205 > 100 µM | T47D > 100 µM | Hs-578T 56.9 µM | OVCAR-4 > 100 µM | UACC-257 > 100 µM | BT-549 52.5 µM | MDA-MB-231 31.7 µM | Malme-3M > 100 µM | A549 > 100 µM | OVCAR-3 > 100 µM

NCCCNC1(c2cc3ccccc3s2)CCCCC1
inactive: ACHN 11.9 µM | NCI-H226 17.1 µM | 786-0 2 µM | HL-60 2.64 µM | SR 1.77 µM | U-251 2.93 µM | MOLT-4 3.29 µM | UACC-62 1.92 µM | UO-31 1.93 µM | PC-3 7.13 µM | COLO 205 1.84 µM | T47D 2.58 µM | Hs-578T 11.9 µM | OVCAR-4 11.1 µM | UACC-257 1.64 µM | BT-549 13.8 µM | MDA-MB-231 3.86 µM | Malme-3M 1.88 µM | A549 7.1 µM | OVCAR-3 7.19 µM

O=c1c2sc3ccccc3sc=2c(=O)c2c(Cl)c(Cl)c(Cl)c(Cl)c12
inactive: ACHN > 100 µM | NCI-H226 > 100 µM | 786-0 > 100 µM | SR > 100 µM | U-251 > 100 µM | MOLT-4 > 100 µM | UACC-62 > 100 µM | UO-31 > 100 µM | PC-3 > 100 µM | COLO 205 > 100 µM | T47D > 100 µM | Hs-578T 38.4 µM | OVCAR-4 > 100 µM | UACC-257 > 100 µM | BT-549 > 100 µM | MDA-MB-231 > 100 µM | Malme-3M > 100 µM | A549 > 100 µM | OVCAR-3 > 100 µM

CCNC(=O)Cc1nc2c(O)ncnc2n1C1OC(CO)C(O)C1O (configuration not stated)
inactive: ACHN > 100 µM | NCI-H226 > 100 µM | 786-0 > 100 µM | HL-60 > 100 µM | U-251 > 100 µM | MOLT-4 > 100 µM | UACC-62 > 100 µM | UO-31 > 100 µM | PC-3 > 100 µM | COLO 205 > 100 µM | T47D > 100 µM | Hs-578T > 100 µM | OVCAR-4 > 100 µM | UACC-257 > 100 µM | BT-549 > 100 µM | MDA-MB-231 > 100 µM | Malme-3M > 100 µM | A549 > 100 µM | OVCAR-3 > 100 µM

CC1=C2CC(C)(C)CC(=O)C2(C)CCC1=O (configuration not stated)
inactive: ACHN > 100 µM | NCI-H226 > 100 µM | 786-0 > 100 µM | HL-60 > 100 µM | SR 94.2 µM | U-251 > 100 µM | MOLT-4 > 100 µM | UACC-62 > 100 µM | UO-31 > 100 µM | PC-3 > 100 µM | COLO 205 > 100 µM | T47D > 100 µM | Hs-578T > 100 µM | OVCAR-4 > 100 µM | UACC-257 > 100 µM | BT-549 > 100 µM | MDA-MB-231 > 100 µM | Malme-3M > 100 µM | A549 > 100 µM

O=C(Nc1ccc(Cl)c(C(F)(F)F)c1)C(=O)c1c(O)c2ccccc2oc1=O
inactive: ACHN > 100 µM | NCI-H226 > 100 µM | 786-0 > 100 µM | HL-60 > 10 µM | SR > 100 µM | U-251 > 100 µM | MOLT-4 > 100 µM | UACC-62 > 100 µM | UO-31 > 100 µM | PC-3 > 100 µM | T47D > 100 µM | Hs-578T > 100 µM | OVCAR-4 > 100 µM | UACC-257 > 100 µM | BT-549 > 100 µM | MDA-MB-231 > 100 µM | Malme-3M > 100 µM | A549 > 100 µM | OVCAR-3 > 100 µM

CC(=O)OC[C@]1(C(=O)C(O)c2ccoc2)[C@H](C)CC[C@@]23COC(=O)C2=CCC[C@@H]31 (some centres not stated)
inactive: ACHN > 10 µM | NCI-H226 > 10 µM | 786-0 > 10 µM | HL-60 > 10 µM | SR > 10 µM | U-251 > 10 µM | MOLT-4 > 10 µM | UACC-62 > 10 µM | UO-31 > 10 µM | PC-3 > 10 µM | COLO 205 > 10 µM | T47D > 10 µM | Hs-578T > 10 µM | OVCAR-4 > 10 µM | UACC-257 > 10 µM | BT-549 > 10 µM | MDA-MB-231 > 10 µM | A549 > 10 µM | OVCAR-3 > 10 µM

CCOC(=O)c1c(O)cn2c1[nH]c1cccc3cccc2c31
inactive: ACHN 52.4 µM | NCI-H226 > 100 µM | 786-0 52.2 µM | HL-60 57.3 µM | SR 50.5 µM | U-251 63.4 µM | MOLT-4 44.2 µM | UACC-62 > 100 µM | UO-31 69.2 µM | PC-3 > 100 µM | COLO 205 71.6 µM | T47D 50.8 µM | Hs-578T > 100 µM | OVCAR-4 > 100 µM | UACC-257 > 100 µM | BT-549 > 100 µM | MDA-MB-231 > 100 µM | Malme-3M > 100 µM | A549 > 100 µM

COc1ccc(NC2Oc3cc4c(cc3C(c3cccc(OC)c3OC)C2C)OCO4)cc1 (configuration not stated)
inactive: ACHN 4.59 µM | NCI-H226 6.82 µM | 786-0 7.96 µM | HL-60 3.22 µM | SR 2.04 µM | U-251 4.01 µM | MOLT-4 2.9 µM | UACC-62 14.9 µM | UO-31 5.85 µM | PC-3 3.62 µM | COLO 205 6.14 µM | T47D 5.08 µM | Hs-578T 7.96 µM | UACC-257 4.46 µM | BT-549 13.5 µM | MDA-MB-231 16.7 µM | Malme-3M 15.4 µM | A549 5.53 µM | OVCAR-3 5.35 µM

C(=N\c1ccc2c(c1)Cc1ccccc1-2)/c1ccccn1
inactive: ACHN > 100 µM | NCI-H226 > 100 µM | 786-0 34.8 µM | SR 24.9 µM | U-251 63.1 µM | MOLT-4 23 µM | UACC-62 89.3 µM | UO-31 > 100 µM | PC-3 38.7 µM | T47D 59.4 µM | Hs-578T 92.3 µM | OVCAR-4 > 100 µM | UACC-257 27.1 µM | BT-549 81.8 µM | MDA-MB-231 68.2 µM | Malme-3M > 100 µM | A549 > 100 µM | OVCAR-3 61.7 µM

O=C(O)Cc1ccc2nc(COC(=O)c3ccccc3)sc2c1
inactive: ACHN > 100 µM | 786-0 > 100 µM | SR > 100 µM | U-251 > 100 µM | UACC-62 > 100 µM | UO-31 > 100 µM | PC-3 > 100 µM | COLO 205 > 100 µM | T47D > 100 µM | Hs-578T > 100 µM | OVCAR-4 > 100 µM | UACC-257 > 100 µM | BT-549 > 100 µM | MDA-MB-231 > 100 µM | Malme-3M > 100 µM | A549 > 100 µM | OVCAR-3 > 100 µM

Fc1cccc(F)c1C1SCc2nc3cc(Cl)ccc3n21 (configuration not stated)
inactive: ACHN 31.3 µM | 786-0 25.7 µM | HL-60 14 µM | SR 17.8 µM | U-251 22 µM | MOLT-4 14 µM | UACC-62 37.9 µM | UO-31 19.2 µM | PC-3 34.4 µM | COLO 205 17.9 µM | T47D 31.2 µM | Hs-578T > 44.7 µM | OVCAR-4 35.9 µM | UACC-257 32.8 µM | BT-549 21.9 µM | MDA-MB-231 55.1 µM | Malme-3M 17 µM | A549 31.3 µM | OVCAR-3 46 µM

C[C@H](Nc1nc(N)c(N=O)c(=O)n1C)C(=O)O
inactive: ACHN > 10 µM | NCI-H226 > 10 µM | 786-0 > 10 µM | HL-60 > 10 µM | SR > 10 µM | U-251 > 10 µM | MOLT-4 > 10 µM | UACC-62 > 10 µM | PC-3 > 10 µM | COLO 205 > 10 µM | T47D > 10 µM | Hs-578T > 10 µM | OVCAR-4 > 10 µM | UACC-257 > 10 µM | BT-549 > 10 µM | MDA-MB-231 > 10 µM | Malme-3M > 10 µM | A549 > 10 µM | OVCAR-3 > 10 µM
